Test results: paper PMC10810714, “Antiretroviral Drug Exposure and Response in Obese and Morbidly Obese People With Human Immunodeficiency Virus (HIV): A Study Combining Modelling and Swiss HIV Cohort Data” (Clinical Infectious Diseases: An Official Publication of …, 2023)
Where two headings read alike, the source gives them in different places.

Columns and labels:
[1] = PBPK model virtual trials matched to the observed studies (model verification, nonobese vs obese); set-up: species or system human; conditions: for AUCt, Ratio Predicted/Observed, Nonobese / Cmax, Ratio Predicted/Observed, Nonobese / Cτ, Ratio Predicted/Observed, Nonobese / t1/2, Ratio Predicted/Observed, Nonobese: nonobese individuals; for Predictions within x-fold of observed clinical data: pharmacokinetic parameters in obese and nonobese individuals, 1.25-fold 'for the most part'
Excerpt: (§1) We took several steps to analyse the impact of obesity on the ARVs exposure and response. First, we implemented our in-house PBPK model with our recently published virtual White obese population to simulate the pharmacokinetics of ARVs in nonobese and obese individuals. Next, we verified the simulations against the TDM data collected during the follow-up visits of the SHCS (multiple drug levels per individual were allowed [more information on the SHCS in the homonymous section in the Supplementary Material]). We then applied the verified model to extrapolate the pharmacokinetics across different obesity classes. Finally, the clinical relevance of obesity-related changes on drug response was evaluated by analyzing HIV viral load and the corresponding TDM values in obese and nonobese individuals in the SHCS.
(§2) All ARV drug models, except for doravirine (Supplementary Table 1), were previously developed and verified to predict the pharmacokinetics in healthy and elderly PWH [6, 12]. […] The TDM data were excluded if the participant’s age was younger than 20 or older than 50 years to avoid the age-related confounding effect on the pharmacokinetics, if a nonstandard ARV dosage was used, and if concurrent medications with inhibitory or inducing effects were used. The pharmacokinetic parameters including peak plasma concentration (Cmax), area under the curve to time t (AUCt), and trough concentration (Cτ) were derived from the TDM data using noncompartmental analysis.
(§3) A literature search was also performed to identify pharmacokinetic studies with ARVs conducted in obese and nonobese individuals. Data on the study design, characteristics of the participants, and pharmacokinetic results were collected. […] Available concentration-time profiles were digitalized using GetData Graph Digitizer V.2.26. The virtual trials were conducted by matching the participants’ demographics (eg, age, proportion of females, and BMI) and the ARV dosing regimen (Supplementary Table 2). The models were considered verified if the simulations were within 2-fold of observed data.

[2] = Observed pharmacokinetics of antiretrovirals in nonobese and obese individuals (SHCS therapeutic drug monitoring data and literature studies, noncompartmental analysis); conditions: for AUC(0-t) / Cmax / half-life: human, plasma, po, nonobese individuals; for AUC(0-t): AUCt; for AUC(0-t) / Cmax: observed; for AUC(0-t) / Cmax / half-life / Cτ, observed, nonobese individuals: nonobese (BMI range per drug), GM; for half-life: t1/2, observed
Excerpt: as §1, §2, §3
The Swiss HIV Cohort Study (SHCS) is an ongoing, nationwide, multicenter, clinic-based prospective cohort study in Switzerland with continuous enrollment and follow-up (twice a year) of people with HIV (PWH). Socio-demographic, clinical and laboratory data are recorded in detail. […] The collection of therapeutic drug monitoring (TDM) data in the SHCS database was initiated in 1998. All available TDM data for each evaluated antiretroviral drug were extracted from the SHCS database representing 6210 and 575 data points for the verification of the simulations in non-obese and obese individuals, respectively.

[3] = test system: HIV viral load; test: Drug response in obese versus nonobese participants in the SHCS (concentration below efficacy threshold and viral load >50 copies/mL)
Procedure: The viral load was analyzed in conjunction with the TDM data to evaluate whether a decrease in ARV exposure in obese PWH is associated with a viral load of more than 50 copies/mL (the viral load measured on the date of the TDM assessment was considered for this evaluation).

[4] = cited from earlier work; for AUCt, observed, nonobese individuals / Cmax, observed, nonobese individuals / Cτ, observed, nonobese individuals / t1/2, observed, nonobese individuals: standard oral dose at steady state, GM (mean for etravirine, emtricitabine, tenofovir), literature studies only, ref Supplementary Table 2 [9-16, 21-24]
[5] = Black African PWH, median BMI 25.3 vs 32.8 kg/m^2; cited from earlier work
[6] = over 18 mo after switching from tenofovir disoproxil fumarate; cited from earlier work
[7] = standard oral dose at steady state, SHCS TDM data with or without literature data
[8] = BMI 18.5–30 kg/m^2, viral load above 50 copies/mL
[9] = BMI >30 kg/m^2, viral load above 50 copies/mL
[10] = obese (BMI >=30, range per drug), standard oral dose at steady state, GM (mean for etravirine), SHCS TDM data with or without literature data
[11] = obese BMI 36–46 kg/m^2, 245 mg QD, mean, literature study only

Compound	AUCt, Ratio Predicted/Observed, Nonobese [1]	Cmax, Ratio Predicted/Observed, Nonobese [1]	Cτ, Ratio Predicted/Observed, Nonobese [1]	t1/2, Ratio Predicted/Observed, Nonobese [1]	AUC(0-t) [2, 7] [ng·h/mL]	Cmax [2, 7] [ng/mL]	half-life [2, 7] [h]	Cτ, observed, nonobese individuals [2, 7] [ng/mL]	% PWH with concentration below efficacy threshold ([3]; BMI 18.5–30 kg/m^2) [%]	% PWH with virological failure amongst those with concentration below efficacy threshold [3, 8] [%]	% PWH with concentration below efficacy threshold ([3]; BMI >30 kg/m^2) [%]	% PWH with virological failure amongst those with concentration below efficacy threshold [3, 9] [%]	Cτ, observed, obese individuals [2, 10] [ng/mL]	AUCt, observed, nonobese individuals [4] [ng·h/mL]	Cmax, observed, nonobese individuals [4] [ng/mL]	Cτ, observed, nonobese individuals [4] [ng/mL]	further results
O=C(NCc1c(F)cc(F)cc1F)c1cn2c(c(O)c1=O)C(=O)N1[C@H]3CC[C@H](C3)O[C@@H]1C2 [Bictegravir, bictegravir]	0.97	0.87	1.01	1.27	85800	5240	20.6	2373	1.5	0	0	0					Predictions within x-fold of observed clinical data [1]: ≤ 1.5 fold
CC(C)c1nc(CN(C)C(=O)N[C@H](C(=O)N[C@@H](Cc2ccccc2)C[C@H](O)[C@H](Cc2ccccc2)NC(=O)OCc2cncs2)C(C)C)cs1 [Ritonavir, ritonavir]					5740	480	5.4	91.4					71.3				
O=C1Nc2ccc(Cl)cc2[C@@](C#CC2CC2)(C(F)(F)F)O1 [Efavirenz, efavirenz]					52200	3170	20.2	1751	2.3	1.1	5.2	1.1	1512				
Nc1nc(=O)n([C@@H]2CS[C@H](CO)O2)cc1F [Emtricitabine, emtricitabine]	1.10	0.99	1.35	1.86										9589.4	1640.2	67.1	t1/2, observed, nonobese individuals [4]: 9.4 h
Cc1nnc(C(=O)NC(C)(C)c2nc(C(=O)NCc3ccc(F)cc3)c(O)c(=O)n2C)o1 [Raltegravir, raltegravir]								142	4	1.6	4.7	0	171				
C[C@@H]1CCO[C@H]2Cn3cc(C(=O)NCc4ccc(F)cc4F)c(=O)c(O)c3C(=O)N12 [Dolutegravir, dolutegravir]					45400	3320	12.6	889	2.1	0.3	2.6	0	940				Reduction in AUCt, obese vs nonobese [5]: 9%; Reduction in Cmax, obese vs nonobese [5]: 14%; Reduction in Cτ, obese vs nonobese [5]: 1%
C[C@H](Cn1cnc2c(N)ncnc21)OCP(=O)(O)O [Tenofovir, tenofovir]	1.06	1.00	1.11	1.15										2858.4	300.5	58.2	AUCt, Ratio Predicted/Observed, Obese ([1]; obese individuals): 0.95; Cmax, Ratio Predicted/Observed, Obese ([1]; obese individuals): 0.83; Cτ, Ratio Predicted/Observed, Obese ([1]; obese individuals): 1.13; t1/2, Ratio Predicted/Observed, Obese ([1]; obese individuals): 1.75; t1/2, observed, nonobese individuals [4]: 14.9 h; AUCt, observed, obese individuals [4, 11]: 2346 ng·h/mL; Cmax, observed, obese individuals [4, 11]: 263 ng/mL; Cτ, observed, obese individuals [4, 11]: 47 ng/mL; t1/2, observed, obese individuals [4, 11]: 13 h
Cc1cc(/C=C/C#N)cc(C)c1Nc1ccnc(Nc2ccc(C#N)cc2)n1 [Rilpivirine, rilpivirine]	1.05	0.93	0.96	0.65					15	1.9	0	0	89.2	2333	159.7	75.2	AUCt, Ratio (Predicted Ratio Obese/Nonobese)/(Observed Ratio Obese/Nonobese) [1]: 1.16; Cmax, Ratio (Predicted Ratio Obese/Nonobese)/(Observed Ratio Obese/Nonobese) [1]: 1.09; Cτ, Ratio (Predicted Ratio Obese/Nonobese)/(Observed Ratio Obese/Nonobese) [1]: 0.87; AUCt, Ratio Predicted/Observed, Obese ([1]; obese individuals): 1.23; Cmax, Ratio Predicted/Observed, Obese ([1]; obese individuals): 1.00; Cτ, Ratio Predicted/Observed, Obese ([1]; obese individuals): 0.84; Predictions within x-fold of observed clinical data [1]: ≤ 1.25 fold; Cmax, observed, obese individuals [2, 10]: 147.7 ng/mL; AUCt, Ratio Obese/Nonobese, Observed ([2]; observed data): 0.85; Cmax, Ratio Obese/Nonobese, Observed ([2]; observed data): 0.92; Cτ, Ratio Obese/Nonobese, Observed ([2]; observed data): 1.19; t1/2, observed, nonobese individuals [4]: 47.2 h
darunavir/ritonavir										1.6		0					
CC(C)OC(=O)[C@H](C)N[P@](=O)(CO[C@H](C)Cn1cnc2c(N)ncnc21)Oc1ccccc1 [tenofovir alafenamide]																	Increase in weight [6]: 1.7 kg
Cc1cc(C#N)cc(C)c1Oc1nc(Nc2ccc(C#N)cc2)nc(N)c1Br [Etravirine, etravirine]									32.1	11.9	10	0	313	7970	949	464	
